In the CheMixHub ionic liquid set:

Assay: xn = mol fraction of the nth substance listed

O=C([O-])CC(O)(CC(=O)[O-])C(=O)[O-].[K+].[K+].[K+] + CCOS(=O)(=O)[O-].CC[n+]1ccn(C)c1 + O
viscosity [mPa·s], 101.3 kPa
Conditions	293.15 K	298.15 K	303.15 K	308.15 K	313.15 K
x1 = 0.0001822, x2 = 0.001795	1.082	0.969	0.854	0.76	0.688
x1 = 0.0001842, x2 = 0.002697	1.117	0.997	0.886	0.798	0.719
x1 = 0.0001964, x2 = 0	1.012	0.9	0.806	0.73	0.654
x1 = 0.0002632, x2 = 0.003588	1.149	1.029	0.912	0.824	0.74
x1 = 0.0005421, x2 = 0	1.019	0.907	0.813	0.737	0.661
x1 = 0.0005539, x2 = 0.001794	1.091	0.978	0.863	0.769	0.697
x1 = 0.0005561, x2 = 0.002696	1.127	1.007	0.896	0.808	0.729
x1 = 0.0005675, x2 = 0.003587	1.157	1.037	0.921	0.832	0.749
x1 = 0.0008894, x2 = 0	1.026	0.914	0.82	0.744	0.668
x1 = 0.0009179, x2 = 0.001794	1.099	0.986	0.871	0.776	0.704
x1 = 0.0009314, x2 = 0.002695	1.135	1.015	0.904	0.816	0.737
x1 = 0.0009355, x2 = 0.003586	1.166	1.046	0.929	0.841	0.757
x1 = 0.00126, x2 = 0	1.032	0.92	0.826	0.75	0.674
x1 = 0.001287, x2 = 0.001793	1.106	0.993	0.878	0.783	0.712
x1 = 0.001299, x2 = 0.002694	1.143	1.023	0.912	0.824	0.745
x1 = 0.001316, x2 = 0.003585	1.174	1.054	0.937	0.849	0.765
x1 = 0.001616, x2 = 0	1.038	0.926	0.832	0.756	0.68
x1 = 0.001647, x2 = 0.001792	1.113	1	0.884	0.79	0.719
x1 = 0.001665, x2 = 0.002693	1.15	1.03	0.92	0.831	0.753
x1 = 0.001686, x2 = 0.003583	1.181	1.061	0.944	0.856	0.773
x1 = 0.001985, x2 = 0	1.044	0.932	0.838	0.762	0.686
x1 = 0.002026, x2 = 0.002692	1.158	1.038	0.926	0.839	0.759
x1 = 0.002032, x2 = 0.001792	1.12	1.007	0.892	0.798	0.725
x1 = 0.002072, x2 = 0.003582	1.19	1.07	0.954	0.865	0.78

[N-]=C=S.[NH4+] + CC(=O)[O-].CC[n+]1ccn(C)c1
101 kPa
Conditions	electrical conductivity [S/m]	viscosity [mPa·s]
298.15 K, x1 = 0.3001	0.344	194.6
298.15 K, x1 = 0.3199	0.353	195.4
303.15 K, x1 = 0.1002	0.371	117.6
303.15 K, x1 = 0.1998	0.386	139.3
303.15 K, x1 = 0.3001	0.447	141.9
308.15 K, x1 = 0.1998	0.491	104
308.15 K, x1 = 0.2514	0.525	–
308.15 K, x1 = 0.3413	0.587	–
313.15 K, x1 = 0.3413	0.807	81.7
318.15 K, x1 = 0.1998	0.852	61.5
328.15 K, x1 = 0.1002	–	34.29
328.15 K, x1 = 0.3199	–	39.29
333.15 K, x1 = 0.02	–	25.64
333.15 K, x1 = 0.1002	–	28.06
333.15 K, x1 = 0.1998	–	31.2
333.15 K, x1 = 0.3001	–	31.43

CC(N)C(=O)[O-].COCCCCn1cc[n+](C)c1 + CS(C)=O
100 kPa
Conditions	viscosity [mPa·s]
288.15 K, x1 = 0.1996	11.74
288.15 K, x1 = 0.3012	22.04
288.15 K, x1 = 0.5996	96.5
288.15 K, x1 = 0.8997	304
293.15 K, x1 = 0.1996	11.35
293.15 K, x1 = 0.3012	19.11
293.15 K, x1 = 1	266
298.15 K, x1 = 0.1996	8.85
303.15 K, x1 = 0.1996	7.37
303.15 K, x1 = 0.5996	41.72
308.15 K, x1 = 0.3985	16.23
308.15 K, x1 = 0.5996	33.51
308.15 K, x1 = 0.6966	44.96
308.15 K, x1 = 0.7973	60.65
313.15 K, x1 = 0.6966	36.01
318.15 K, x1 = 0.1009	3.18
318.15 K, x1 = 0.4922	15.18
318.15 K, x1 = 0.5996	21.68
318.15 K, x1 = 0.7973	37.1

C=C[n+]1ccn(CCCC)c1.NCCCC[C@H](N)C(=O)[O-] + O
101.3 kPa
Conditions	electrical conductivity [S/m]	viscosity [mPa·s]
293.15 K, x1 = 0.3	–	8.51
293.15 K, x1 = 0.5	–	90.4
293.15 K, x1 = 0.9	–	1909
293.15 K, x1 = 1	–	10700
303.15 K, x1 = 0.5	2.81	69.3
303.15 K, x1 = 0.9	1.13	1664
303.15 K, x1 = 1	0.133	6900
308.15 K, x1 = 0.1	2.16	–
313.15 K, x1 = 0.3	2.99	4.43
313.15 K, x1 = 0.5	3.31	51.34
323.15 K, x1 = 0.5	3.88	40.64
333.15 K, x1 = 0.9	–	750
343.15 K, x1 = 0.5	–	36.74
343.15 K, x1 = 0.9	–	223
353.15 K, x1 = 0.1	–	1.39
353.15 K, x1 = 0.3	–	2.03

COP(=O)([O-])OC.C[N+]1(CCO)CCCC1 + CCO
100 kPa
Conditions	viscosity [mPa·s]
293.15 K, x1 = 0.1077	4.74
293.15 K, x1 = 0.2079	12.31
293.15 K, x1 = 0.3084	32
293.15 K, x1 = 0.4033	55.9
293.15 K, x1 = 0.5077	123
293.15 K, x1 = 0.7053	402
298.15 K, x1 = 0.7053	295
298.15 K, x1 = 0.8055	478
303.15 K, x1 = 0.0561	2.02
303.15 K, x1 = 0.2079	9.66
303.15 K, x1 = 0.3084	23.7
303.15 K, x1 = 0.5077	78.2
308.15 K, x1 = 0.0561	1.73
308.15 K, x1 = 0.1077	3.54
308.15 K, x1 = 0.1523	5.76
308.15 K, x1 = 0.3084	21.1
313.15 K, x1 = 0.9053	277
318.15 K, x1 = 0.2079	7.02
318.15 K, x1 = 0.2537	10.45
318.15 K, x1 = 0.4033	26.5
318.15 K, x1 = 0.5077	44.7
318.15 K, x1 = 1	273
323.15 K, x1 = 0.5077	38.1
323.15 K, x1 = 0.6042	60
328.15 K, x1 = 0.2079	5.83
328.15 K, x1 = 0.3084	12.98
328.15 K, x1 = 0.6042	50.4
333.15 K, x1 = 0.4033	17.9
333.15 K, x1 = 0.7053	54.1
338.15 K, x1 = 0.4033	16.24
338.15 K, x1 = 0.5077	23.8
338.15 K, x1 = 0.6042	35.9
338.15 K, x1 = 0.8055	60.9

OCCO + CCCC[n+]1ccn(C)c1.O=S(=O)([N-]S(=O)(=O)C(F)(F)F)C(F)(F)F
100 kPa
Conditions	viscosity [mPa·s]
293.15 K, x2 = 0.2002	34.4
293.15 K, x2 = 0.4015	41.6
298.15 K, x2 = 0.2002	27.2
308.15 K, x2 = 0.2997	18.6
308.15 K, x2 = 0.7003	21.8
313.15 K, x2 = 0.2997	15.6
318.15 K, x2 = 0.2997	13.3
318.15 K, x2 = 0.7003	15.6
323.15 K, x2 = 0.2997	11.5
323.15 K, x2 = 0.7993	14.8
323.15 K, x2 = 0.9	17
328.15 K, x2 = 0.4015	10.4
328.15 K, x2 = 0.6007	11.3
328.15 K, x2 = 0.9	14.7
333.15 K, x2 = 0.2002	8.11
333.15 K, x2 = 0.7993	11.3
338.15 K, x2 = 0.7993	10
